In ChEMBL document CHEMBL1909046, “DrugMatrix in vitro pharmacology data”:

Tests used:
[1] = biological target: T1, Estrogen receptor (Homo sapiens, UniProt P03372); assay: biochemical
T1 sequence (P03372 whole entry): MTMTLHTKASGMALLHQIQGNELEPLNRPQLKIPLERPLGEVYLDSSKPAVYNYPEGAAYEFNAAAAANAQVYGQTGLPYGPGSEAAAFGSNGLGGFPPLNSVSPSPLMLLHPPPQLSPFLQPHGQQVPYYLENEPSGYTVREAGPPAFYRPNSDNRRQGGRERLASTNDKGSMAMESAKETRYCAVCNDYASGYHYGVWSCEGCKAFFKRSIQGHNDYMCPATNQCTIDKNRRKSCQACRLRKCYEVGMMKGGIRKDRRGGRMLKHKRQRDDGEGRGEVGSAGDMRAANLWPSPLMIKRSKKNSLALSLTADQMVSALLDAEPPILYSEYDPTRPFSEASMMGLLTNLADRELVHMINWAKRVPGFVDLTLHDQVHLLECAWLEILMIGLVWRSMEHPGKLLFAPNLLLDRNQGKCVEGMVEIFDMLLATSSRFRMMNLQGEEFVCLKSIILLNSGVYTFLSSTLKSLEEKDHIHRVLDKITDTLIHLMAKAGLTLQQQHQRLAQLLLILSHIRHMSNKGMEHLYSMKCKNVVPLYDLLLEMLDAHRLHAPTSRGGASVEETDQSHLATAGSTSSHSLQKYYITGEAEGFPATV

[2] = biological target: Cytochrome P450 3A4 (Homo sapiens, UniProt P08684)
Chain of Cytochrome P450 3A4 (P08684 whole entry): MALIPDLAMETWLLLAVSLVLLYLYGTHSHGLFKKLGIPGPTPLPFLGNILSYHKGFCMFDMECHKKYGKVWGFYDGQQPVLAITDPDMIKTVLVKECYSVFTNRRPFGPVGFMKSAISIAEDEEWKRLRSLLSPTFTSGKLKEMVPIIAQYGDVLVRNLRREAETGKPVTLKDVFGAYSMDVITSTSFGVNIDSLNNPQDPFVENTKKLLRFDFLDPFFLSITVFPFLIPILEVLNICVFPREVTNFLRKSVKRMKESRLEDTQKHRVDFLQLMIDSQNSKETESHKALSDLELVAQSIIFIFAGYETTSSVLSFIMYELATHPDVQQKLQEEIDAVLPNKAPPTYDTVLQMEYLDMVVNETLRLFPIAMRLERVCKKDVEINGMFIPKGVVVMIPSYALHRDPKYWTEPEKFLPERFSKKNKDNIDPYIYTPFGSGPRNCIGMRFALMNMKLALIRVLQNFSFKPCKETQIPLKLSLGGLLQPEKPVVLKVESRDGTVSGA

Row | Structure (SMILES) | IC50 [1] [nM] | Ki [1] [nM] | IC50 [2] [nM]
1 | C[C@]12CC[C@@H]3c4ccc(OC(=O)c5ccccc5)cc4CC[C@H]3[C@@H]1CC[C@@H]2O [ESTRADIOL BENZOATE] | 65 | 18 | –
2 | C#C[C@]1(O)CC[C@H]2[C@@H]3CCc4cc(OC)ccc4[C@H]3CC[C@@]21C [MESTRANOL] | 18 | 5.22 | –
3 | CC(C)(C(=O)c1cccnc1)c1cccnc1 [METYRAPONE] | – | – | 800
